The text below walks through data of patent US10767212B2, “Method of screening compounds” (Cornell University, priority 2016, dated 2020).

The target of data set [1] is T1, GAC (Mus musculus, UniProt D3Z7P3).
T1 sequence (D3Z7P3 73-603 isoform D3Z7P3-2): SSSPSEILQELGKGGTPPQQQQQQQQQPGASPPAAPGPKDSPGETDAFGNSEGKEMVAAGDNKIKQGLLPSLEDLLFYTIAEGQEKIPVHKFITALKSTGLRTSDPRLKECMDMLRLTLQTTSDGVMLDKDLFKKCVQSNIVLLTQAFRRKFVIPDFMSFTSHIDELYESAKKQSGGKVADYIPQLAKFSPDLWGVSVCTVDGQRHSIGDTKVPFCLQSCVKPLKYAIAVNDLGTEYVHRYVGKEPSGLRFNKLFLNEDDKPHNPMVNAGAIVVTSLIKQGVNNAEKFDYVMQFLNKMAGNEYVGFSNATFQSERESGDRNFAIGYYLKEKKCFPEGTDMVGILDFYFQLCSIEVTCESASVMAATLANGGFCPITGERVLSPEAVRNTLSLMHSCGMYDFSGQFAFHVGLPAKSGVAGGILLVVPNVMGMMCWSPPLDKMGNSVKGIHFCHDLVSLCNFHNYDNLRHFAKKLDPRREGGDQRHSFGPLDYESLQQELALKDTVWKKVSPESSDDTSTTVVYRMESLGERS
The data set can be described thus: Real-time NADH fluorescence assay of GAC activity. The data set is classed as biochemical. Also on record: residues 73-603) was cloned into a pET28a vector; His tag with thrombin cleavage site (N); made in house. The settings on record: 1 μM inhibitor, 10 nM GAC, 20 mM glutamine, 100 mM HPO4^2−. The source says: FIG. 4A is a spectra of real-time NADH assays of GAC activity, in which the increased NADH fluorescence (in arbitrary units (AU)) results from the coupled reaction where GAC catalyzes glutamate production, and GDH converts glutamate to α-ketoglutarate and NAD to NADH. […] FIG. 4B is a graph of relative glutaminase activity. […] Error bars represent the standard deviation of three independent experiments.

For data set [2], the target named is T1, GAC. The data set can be described thus: biochemical.
In data set [3] the target is T2, GACF327W (Mus musculus, UniProt D3Z7P3, F327W).
T2 sequence (D3Z7P3 73-603 isoform D3Z7P3-2 F327W): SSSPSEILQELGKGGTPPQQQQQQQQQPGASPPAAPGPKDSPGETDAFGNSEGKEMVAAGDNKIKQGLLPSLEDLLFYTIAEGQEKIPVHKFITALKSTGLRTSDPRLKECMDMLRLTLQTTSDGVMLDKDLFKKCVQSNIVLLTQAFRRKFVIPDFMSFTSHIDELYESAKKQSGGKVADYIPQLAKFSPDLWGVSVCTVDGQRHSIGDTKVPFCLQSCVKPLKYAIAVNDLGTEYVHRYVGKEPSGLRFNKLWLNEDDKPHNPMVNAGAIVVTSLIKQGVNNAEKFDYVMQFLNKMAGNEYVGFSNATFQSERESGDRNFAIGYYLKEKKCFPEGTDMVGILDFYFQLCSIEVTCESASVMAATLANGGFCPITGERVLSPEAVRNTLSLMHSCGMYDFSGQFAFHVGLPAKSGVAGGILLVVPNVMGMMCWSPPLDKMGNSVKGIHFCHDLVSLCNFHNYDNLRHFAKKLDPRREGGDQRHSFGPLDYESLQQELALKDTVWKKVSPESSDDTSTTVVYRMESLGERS
The settings on record: for enhancement of the tryptophan fluorescence of the F327W mutant: addition of anionic activator, 50 mM anion, 400 nM F327W in FIG. 10A.

A further data set deals with T3, GAC tetramers (Mus musculus, UniProt D3Z7P3).
T3 sequence (D3Z7P3 73-603 isoform D3Z7P3-2): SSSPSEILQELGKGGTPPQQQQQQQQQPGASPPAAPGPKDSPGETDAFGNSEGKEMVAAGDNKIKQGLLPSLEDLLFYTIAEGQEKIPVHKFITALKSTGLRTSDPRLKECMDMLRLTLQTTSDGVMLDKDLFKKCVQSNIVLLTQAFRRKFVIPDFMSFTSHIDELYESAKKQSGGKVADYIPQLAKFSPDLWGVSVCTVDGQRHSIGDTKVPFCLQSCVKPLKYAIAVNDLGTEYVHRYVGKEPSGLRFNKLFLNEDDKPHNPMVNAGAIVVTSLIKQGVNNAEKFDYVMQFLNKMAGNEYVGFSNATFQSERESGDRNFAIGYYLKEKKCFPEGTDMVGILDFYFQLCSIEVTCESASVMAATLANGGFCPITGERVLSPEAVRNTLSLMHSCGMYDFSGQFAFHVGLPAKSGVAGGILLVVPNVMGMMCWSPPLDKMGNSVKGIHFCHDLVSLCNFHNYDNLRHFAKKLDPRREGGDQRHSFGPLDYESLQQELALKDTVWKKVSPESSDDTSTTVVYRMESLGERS
As to conditions: for FRET signal (GAC tetramer formation): 25 nM 488-labeled GAC, 75 nM QSY9-GAC; for reversibility of bound GAC tetramers: after addition of excess unlabeled GAC subunits.

For data set [4], the target named is T2, GACF327W. The data set can be described thus: biochemical. As to conditions: KD from fluorescence quenching of the GACF327W mutant, 100 nM GACF327W; fit to a bimolecular interaction equation.
For a further data set, the target named is T4, WT GAC (Mus musculus, UniProt D3Z7P3).
T4 sequence (D3Z7P3 73-603 isoform D3Z7P3-2): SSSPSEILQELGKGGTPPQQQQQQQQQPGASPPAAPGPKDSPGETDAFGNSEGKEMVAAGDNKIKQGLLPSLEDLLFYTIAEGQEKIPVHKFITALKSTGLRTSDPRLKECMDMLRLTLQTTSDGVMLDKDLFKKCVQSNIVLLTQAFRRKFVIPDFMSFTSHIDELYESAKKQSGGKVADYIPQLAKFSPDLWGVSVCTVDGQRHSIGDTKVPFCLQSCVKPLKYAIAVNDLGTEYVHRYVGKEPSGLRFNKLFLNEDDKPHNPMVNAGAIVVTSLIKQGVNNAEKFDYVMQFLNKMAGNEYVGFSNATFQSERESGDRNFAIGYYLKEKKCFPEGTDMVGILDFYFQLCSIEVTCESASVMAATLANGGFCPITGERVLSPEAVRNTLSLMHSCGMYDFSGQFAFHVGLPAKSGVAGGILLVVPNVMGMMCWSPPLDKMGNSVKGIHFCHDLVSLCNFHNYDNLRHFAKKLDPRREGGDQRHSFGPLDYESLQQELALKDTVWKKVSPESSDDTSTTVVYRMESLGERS
The settings on record: 5 mg/ml WT GAC; 50 mM anion in the running buffer.

Data set [5] has as its target T1, GAC. As to conditions: for Kd: read-out: KD values from glutaminase activity with increasing concentrations of anion, 50 nM WT GAC, allosteric activation.
The nature of data set [6]: Catalytic properties of GAC proteins (phosphate-stimulated glutaminase activity). Format: biochemical, mouse.

Several values for one entry are separate records, joined by “and”; a condition that tells them apart may be missing. Equal entries are not always repeated. Where two headings read alike, the source gives them in different places.

As to `O=C(Cc1cccc(OC(F)(F)F)c1)Nc1ccc(CCCCc2nnc(NC(=O)Cc3ccccn3)s2)nn1` [CB-839], the “inhibition of phosphate-stimulated GAC activity (initial rate analysis)” value at GAC [1] is “stronger inhibition”. Further, half-maximal inhibition at GAC [2] (IC50) was put at 23 ± 1 nM. For the same molecule, at GACF327W [3] (1 μM BPTES in FIG. 6B, increasing concentrations in FIGS. 8A-B), the “change in tryptophan fluorescence of GACF327W upon addition of inhibitor” value is given as “dose-dependent quenching”. The “binding kinetics (comparison)” value at GACF327W [3] (real-time F327W fluorescence) is given as “slower binding kinetics than BPTES”. In addition, the “FRET signal (GAC tetramer formation)” value on GAC tetramers (500 nM inhibitor) is given as “rapidly increases the FRET signal”. In addition, on GAC tetramers, the “reversibility of bound GAC tetramers” value is “resistant to dissociation”. The Kd at GACF327W [4] was 34 nM and 30 nM.

Consider `O=P(O)(O)O` [inorganic phosphate], for which the “oligomer size from molecular weight distribution” value on WT GAC was “greater than 32 mers”. Moreover, the “enhancement of the tryptophan fluorescence of the F327W mutant” value at GACF327W [3] came out at 25%. Further, the “FRET signal (GAC tetramer formation)” value at GAC tetramers (100 mM anion) is “rapidly increases the FRET signal”. For the same molecule, at GAC tetramers, the “reversibility of bound GAC tetramers” value was “readily reversible”. The Kd on GAC [5] came out at 20.6 ± 0.4 mM.

Turning to `O=S(=O)(O)O` [sulfate], on GACF327W [3], the “enhancement of the tryptophan fluorescence of the F327W mutant” value turned out to be 15%. The “FRET signal (GAC tetramer formation)” value at GAC tetramers (100 mM anion) is given as “rapidly increases the FRET signal”. Also, the “reversibility of bound GAC tetramers” value at GAC tetramers was “readily reversible”. In addition, the Kd on GAC [5] was 36.4 ± 3 mM. Also, at GAC [5] (relative to phosphate (HPO4^2−)), the “effectiveness in activating GAC relative to phosphate” value is listed as −50%.

B1: GACF327W: mutant mouse GLS protein (GAC) with phenylalanine to tryptophan substitution at position 327 (protein)
chain: MMRLRGSAMLRELLLRPPAAVGAVLRRAQPLGTLCRRPRGGSRPTAGLVAAARLHPWWGGGGRAKGPGAGGLSSSPSEILQELGKGGTPPQQQQQQQQQPGASPPAAPGPKDSPGETDAFGNSEGKEMVAAGDNKIKQGLLPSLEDLLFYTIAEGQEKIPVHKFITALKSTGLRTSDPRLKECMDMLRLTLQTTSDGVMLDKDLFKKCVQSNIVLLTQAFRRKFVIPDFMSFTSHIDELYESAKKQSGGKVADYIPQLAKFSPDLWGVSVCTVDGQRHSIGDTKVPFCLQSCVKPLKYAIAVNDLGTEYVHRYVGKEPSGLRFNKLWLNEDDKPHNPMVNAGAIVVTSLIKQGVNNAEKFDYVMQFLNKMAGNEYVGFSNATFQSERESGDRNFAIGYYLKEKKCFPEGTDMVGILDFYFQLCSIEVTCESASVMAATLANGGFCPITGERVLSPEAVRNTLSLMHSCGMYDFSGQFAFHVGLPAKSGVAGGILLVVPNVMGMMCWSPPLDKMGNSVKGIHFCHDLVSLCNFHNYDNLRHFAKKLDPRREGGDQRHSFGPLDYESLQQELALKDTVWKKVSPESSDDTSTTVVYRMESLGERS
modifications: Mouse GAC with F327W substitution
With B1, in data set [6], the Km came out at 15 ± 1.7 mM and the Vmax was determined as 435 ± 19 µmol/min.

B2: WT GAC: recombinant wild-type mouse glutaminase C, NP_001106854.1, residues 73-603 (protein)
chain: SSSPSEILQELGKGGTPPQQQQQQQQQPGASPPAAPGPKDSPGETDAFGNSEGKEMVAAGDNKIKQGLLPSLEDLLFYTIAEGQEKIPVHKFITALKSTGLRTSDPRLKECMDMLRLTLQTTSDGVMLDKDLFKKCVQSNIVLLTQAFRRKFVIPDFMSFTSHIDELYESAKKQSGGKVADYIPQLAKFSPDLWGVSVCTVDGQRHSIGDTKVPFCLQSCVKPLKYAIAVNDLGTEYVHRYVGKEPSGLRFNKLFLNEDDKPHNPMVNAGAIVVTSLIKQGVNNAEKFDYVMQFLNKMAGNEYVGFSNATFQSERESGDRNFAIGYYLKEKKCFPEGTDMVGILDFYFQLCSIEVTCESASVMAATLANGGFCPITGERVLSPEAVRNTLSLMHSCGMYDFSGQFAFHVGLPAKSGVAGGILLVVPNVMGMMCWSPPLDKMGNSVKGIHFCHDLVSLCNFHNYDNLRHFAKKLDPRREGGDQRHSFGPLDYESLQQELALKDTVWKKVSPESSDDTSTTVVYRMESLGERS
modifications: left off: small tags and cut ends
Turning to B2, in data set [6], the Km came to 16.4 ± 0.4 mM and the Vmax is 453 ± 8 µmol/min.

A word on the IC50: it is the concentration needed to halve the response being measured. Read a low IC50 as higher potency. As a reminder, the Km is the substrate concentration at which the rate is half of its maximum. As a reminder, the Vmax is the rate approached at saturating substrate.
